Patent publication US11285158B2, “Uses of pyrimidopyrimidinones as SIK inhibitors” (The General Hospital Corporation, priority 2017, dated 2022)

These compounds were tested on human breast skin explants (assay: Human skin explants: darkening/pigmentation after topical SIK inhibitor). Conditions: Table 2; Human Skin Explants; passive topical application.
Type: cell-based
Description: Image and Colorimeter analysis were conducted 24 hours after the last treatment.
Human pigmentation experiments. Full thickness human breast skin explants were cultured in petri dishes with a solid phase and liquid phase phenol red free DMEM medium with […], 5% fungizone (Gibco®), and 10% FBS. Passive application refers to simply applying the treatment to skin without further rubbing or manipulation. Mechanical application refers to application of agents to skin with further rubbing of treatment with 10 clockwise turns of a gloved cotton swab applicator. Skin was harvested, fixed, and processed for paraffin embedding. Sections were cut from paraffin blocks, and sections were stained utilizing hematoxylin and eosin (morphology) and Fontana-Masson (melanin).

| SMILES | Results (skin darkening) |
| --- | --- |
| Cc1cccc(C)c1N1Cc2cnc3nc2N(C/C=C/COCc2cccc(c2)N3)C1=O [YKL-05-200-2] | Darkens |
| Cc1cccc(Cl)c1N1Cc2cnc3nc2N(C/C=C\CCOc2cccc(c2)N3)C1=O [YKL-05-201-1] | Darkens |
| Cc1cccc(C)c1N1Cc2cnc3nc2N(C/C=C\COc2cc(ccc2N2CCN(C)CC2)N3)C1=O [YKL-05-204-1] | Darkens |
| Cc1cccc(C)c1N1Cc2cnc3nc2N(C/C=C/COc2cc(ccc2N2CCN(C)CC2)N3)C1=O [YKL-05-204-2] | Darkens |
| Cc1cccc(C)c1N1Cc2cnc(Nc3ccc(N4CCN(C)CC4)cc3)nc2N(C)C1=O [YKL-06-29] | Darkens |
| Cc1cccc(C)c1N1Cc2cnc(Nc3ccc(N4CCN(C)CC4)cc3)nc2N(C(C)C)C1=O [YKL-06-058] | Darkens |
| Cc1cccc(C)c1N1Cc2cnc(Nc3ccc(N4CCN(C)CC4)cc3)nc2N(C2CCC2)C1=O [YKL-06-060] | Darkens |

Same assay, conditions: Table 3; Human Skin Explants

| SMILES | Results (skin darkening) |
| --- | --- |
| CN1CCN(c2ccc(Nc3ncc4c(n3)N(C)C(=O)N(c3ccccc3)C4)cc2)CC1 [HG-11-137-01] | Darkens |
| COc1ccc(N2C(=O)N(c3c(C)cccc3C)Cc3cnc(Nc4ccc(CCCN5CCOCC5)cc4)nc32)c(OC)c1 [YKL-04-108] | Darkens |

Same assay, conditions: Table 4; Human Skin Explants

| SMILES | Results (skin darkening) |
| --- | --- |
| Cc1cccc(C)c1N1Cc2cnc3nc2N(C/C=C/COCc2cccc(c2)N3)C1=O [YKL-05-200-2] | Darkens |
| Cc1cccc(Cl)c1N1Cc2cnc3nc2N(C/C=C\CCOc2cccc(c2)N3)C1=O [YKL-05-201-1] | Darkens |
| Cc1cccc(C)c1N1Cc2cnc3nc2N(C/C=C\COc2cc(ccc2N2CCN(C)CC2)N3)C1=O [YKL-05-204-1] | Darkens |
| Cc1cccc(C)c1N1Cc2cnc3nc2N(C/C=C/COc2cc(ccc2N2CCN(C)CC2)N3)C1=O [YKL-05-204-2] | Darkens |
| Cc1cccc(C)c1N1Cc2cnc(Nc3ccc(N4CCN(C)CC4)cc3)nc2N(C)C1=O [YKL-06-29] | Darkens |
| Cc1cccc(C)c1N1Cc2cnc(Nc3ccc(N4CCN(C)CC4)cc3)nc2N(C(C)C)C1=O [YKL-06-058] | Darkens |
| Cc1cccc(C)c1N1Cc2cnc(Nc3ccc(N4CCN(C)CC4)cc3)nc2N(C2CCC2)C1=O [YKL-06-060] | Darkens |

The compounds below were run on B16 cells (assay: In vitro MITF induction in B16 cells). Conditions: Mus musculus; Table 5; B16 cells; read-out: Highest fold mitf induction in B16 cells.
Type: cell-based, mouse
Description: qPCR. mRNA was extracted from cells using the RNeasy Mini Kit (Qiagen®). KAPA SYBR® FAST Universal One-Step qRT-PCR Kit (KAPA BIOSYSTEMS®) was used to prepare mRNA samples for qPCR and samples were analyzed using the 7500 Fast Real Time PCR System (Applied Biosystems®). The relative expression of each gene was calculated by 7500 Fast System Software program, which utilizes Ct normalized to mRNA levels of RPL11 to calculate relative expression. Results are reported relative to control cells.
Tables 2 to 5 below show the effects of exemplary […] compounds on skin darkening, including an in vitro test of MITF induction following the same protocol as described above in paragraph 333, wherein exemplary SIK inhibitor compounds were tested for their in vitro induction of MITF.
Table 5 below additionally provides characteristics of exemplary SIK inhibitor compounds, MITF induction in B16 cells, EC50, log P, and experimental conditions for skin darkening experiments in mice and humans.

| SMILES | maximal fold induction |
| --- | --- |
| Cc1cccc(C)c1NC(=O)N1C/C=C\COc2cccc(c2)Nc2cc1ncn2 [HG-10-32-01] | 2.4 |
| CN1CCN(c2ccc(Nc3ncc4c(n3)N(C)C(=O)N(c3ccccc3)C4)cc2)CC1 [HG-11-137-01] | 4.82 |
| COc1cc(N2CCN(C)CC2)ccc1Nc1ncc2c(n1)N(C)C(=O)N(c1ccccc1)C2 [HG-11-139-02] | 5.76 |
| COc1ccc(N2C(=O)N(c3c(C)cccc3C)Cc3cnc(Nc4cc(N5CCOCC5)cc(N5CCN(C)CC5)c4)nc32)c(OC)c1 [HG-11-143-01] | 6.8 |
| CCN1CCN(Cc2ccc(Nc3ncc4c(n3)N(c3ccc(OC)cc3OC)C(=O)N(c3c(C)cccc3C)C4)cc2C(F)(F)F)CC1 [YKL-04-103] | 10.2 |
| COc1ccc(N2C(=O)N(c3c(C)cccc3C)Cc3cnc(Nc4ccc(N5CCOCC5)c(C(F)(F)F)c4)nc32)c(OC)c1 [YKL-04-104] | 8 |
| COc1ccc(N2C(=O)N(c3c(C)cccc3C)Cc3cnc(Nc4cnn(C5CCOCC5)c4)nc32)c(OC)c1 [YKL-04-105] | 9.9 |
| COc1ccc(N2C(=O)N(c3c(C)cccc3C)Cc3cnc(Nc4cccc(OCCN5CCOCC5)c4)nc32)c(OC)c1 [YKL-04-106] | 9 |
| COc1ccc(N2C(=O)N(c3c(C)cccc3C)Cc3cnc(Nc4cc(C)c(OCCN5CCOCC5)c(C)c4)nc32)c(OC)c1 [YKL-04-107] | 3.6 |
| COc1ccc(N2C(=O)N(c3c(C)cccc3C)Cc3cnc(Nc4ccc(CCCN5CCOCC5)cc4)nc32)c(OC)c1 [YKL-04-108] | 13.9 |
| COc1ccc(N2C(=O)N(c3c(C)cccc3C)Cc3cnc(Nc4cc(N5CCN(C)CC5)cc(C(F)(F)F)c4)nc32)c(OC)c1 [YKL-04-112] | 5.2 |
| COc1ccc(N2C(=O)N(c3c(C)cccc3C)Cc3cnc(Nc4cc(N5CCOCC5)cc(C(F)(F)F)c4)nc32)c(OC)c1 [YKL-04-113] | 11.2 |
| COc1ccc(N2C(=O)N(c3c(C)cccc3C)Cc3cnc(Nc4ccc(N5CCN(C)CC5)c(OC)c4)nc32)c(OC)c1 [YKL-04-114] | 10.4 |
| COc1ccc(N2C(=O)N(c3c(C)cccc3C)Cc3cnc(Nc4ccc(N5CCOCC5)c(OC)c4)nc32)c(OC)c1 [YKL-04-115] | 10.1 |
| COc1ccc(N2C(=O)N(c3c(C)cccc3C)Cc3cnc(Nc4cc(CN5CCOCC5)cc(C(F)(F)F)c4)nc32)c(OC)c1 [YKL-04-118] | 1.1 |
| COc1ccc(N2C(=O)N(c3c(C)cccc3C)Cc3cnc(Nc4cc(CN5CCN(C)CC5)cc(C(F)(F)F)c4)nc32)c(OC)c1 [YKL-04-125] | 9.7 |
| COc1ccc(N2C(=O)N(c3c(C)cccc3C)Cc3cnc(Nc4ccc(CN5CCN(C)CC5)cc4)nc32)c(OC)c1 [YKL-04-136-01] | 9.7 |
| COc1ccc(N2C(=O)N(c3c(C)cccc3C)Cc3cnc(Nc4cnn(CCN(C)C)c4)nc32)c(OC)c1 [YKL-04-136-02] | 16.1 |
| COc1ccc(N2C(=O)N(c3c(C)cccc3Cl)Cc3cnc(Nc4ccc(N5CCN(C)CC5)cc4)nc32)c(OC)c1 [YKL-04-136-03] | 6.2 |
| COc1ccc(N2C(=O)N(c3c(C)cccc3Cl)Cc3cnc(Nc4cnn(CCN(C)C)c4)nc32)c(OC)c1 [YKL-04-136-04] | 9.2 |
| COc1cc(N2CCN(C(C)=O)CC2)ccc1N1C(=O)N(c2c(C)cccc2C)Cc2cnc(Nc3ccc(N4CCN(C)CC4)cc3)nc21 [YKL-04-136-05] | 8.9 |
| COc1ccc(N2C(=O)N(c3c(C)cccc3C)Cc3cnc(Nc4ccc(N5CCN(C)CC5)cc4)nc32)nc1 [YKL-04-136-06] | 26.9 |
| COc1cc(N2CCN(C(C)=O)CC2)ccc1N1C(=O)N(c2c(C)cccc2C)Cc2cnc(Nc3cnn(CCN(C)C)c3)nc21 [YKL-04-136-07] | 2.4 |
| COc1ccc(N2C(=O)N(c3c(C)cccc3C)Cc3cnc(Nc4cnn(CCN(C)C)c4)nc32)nc1 [YKL-04-136-08] | 4.1 |
| COc1ccc(N2C(=O)N(c3c(C)cccc3C)Cc3cnc(Nc4ccc(CN5CCN(C)CC5)cc4)nc32)nc1 [YKL-04-136-10] | 16.3 |
| COc1cc(N2CCN(C(C)=O)CC2)ccc1N1C(=O)N(c2c(C)cccc2C)Cc2cnc(Nc3ccc(CN4CCN(C)CC4)cc3)nc21 [YKL-04-136-11] | 9.58 |

Same assay, conditions: Mus musculus; Table 5; readout not given, presumably mitf induction in B16 cells

| SMILES | EC50 [µM] |
| --- | --- |
| COc1ccc(N2C(=O)N(c3c(C)cccc3C)Cc3cnc(Nc4cc(N5CCOCC5)cc(N5CCN(C)CC5)c4)nc32)c(OC)c1 [HG-11-143-01] | 0.057 |
| CCN1CCN(Cc2ccc(Nc3ncc4c(n3)N(c3ccc(OC)cc3OC)C(=O)N(c3c(C)cccc3C)C4)cc2C(F)(F)F)CC1 [YKL-04-103] | 0.001 |
| COc1ccc(N2C(=O)N(c3c(C)cccc3C)Cc3cnc(Nc4ccc(N5CCOCC5)c(C(F)(F)F)c4)nc32)c(OC)c1 [YKL-04-104] | 0.021 |
| COc1ccc(N2C(=O)N(c3c(C)cccc3C)Cc3cnc(Nc4cnn(C5CCOCC5)c4)nc32)c(OC)c1 [YKL-04-105] | 0.005 |
| COc1ccc(N2C(=O)N(c3c(C)cccc3C)Cc3cnc(Nc4cccc(OCCN5CCOCC5)c4)nc32)c(OC)c1 [YKL-04-106] | 0.074 |
| COc1ccc(N2C(=O)N(c3c(C)cccc3C)Cc3cnc(Nc4cc(C)c(OCCN5CCOCC5)c(C)c4)nc32)c(OC)c1 [YKL-04-107] | 0.015 |
| COc1ccc(N2C(=O)N(c3c(C)cccc3C)Cc3cnc(Nc4ccc(CCCN5CCOCC5)cc4)nc32)c(OC)c1 [YKL-04-108] | 0.014 |
| COc1ccc(N2C(=O)N(c3c(C)cccc3C)Cc3cnc(Nc4cc(N5CCN(C)CC5)cc(C(F)(F)F)c4)nc32)c(OC)c1 [YKL-04-112] | 0.215 |
| COc1ccc(N2C(=O)N(c3c(C)cccc3C)Cc3cnc(Nc4cc(N5CCOCC5)cc(C(F)(F)F)c4)nc32)c(OC)c1 [YKL-04-113] | 0.657 |
| COc1ccc(N2C(=O)N(c3c(C)cccc3C)Cc3cnc(Nc4ccc(N5CCN(C)CC5)c(OC)c4)nc32)c(OC)c1 [YKL-04-114] | 0.067 |
| COc1ccc(N2C(=O)N(c3c(C)cccc3C)Cc3cnc(Nc4ccc(N5CCOCC5)c(OC)c4)nc32)c(OC)c1 [YKL-04-115] | 0.024 |
| COc1ccc(N2C(=O)N(c3c(C)cccc3C)Cc3cnc(Nc4cc(CN5CCOCC5)cc(C(F)(F)F)c4)nc32)c(OC)c1 [YKL-04-118] | 1420 |
| COc1ccc(N2C(=O)N(c3c(C)cccc3C)Cc3cnc(Nc4cc(CN5CCN(C)CC5)cc(C(F)(F)F)c4)nc32)c(OC)c1 [YKL-04-125] | 0.133 |
| COc1ccc(N2C(=O)N(c3c(C)cccc3C)Cc3cnc(Nc4ccc(CN5CCN(C)CC5)cc4)nc32)c(OC)c1 [YKL-04-136-01] | 0.053 |
| COc1ccc(N2C(=O)N(c3c(C)cccc3C)Cc3cnc(Nc4cnn(CCN(C)C)c4)nc32)c(OC)c1 [YKL-04-136-02] | 0.021 |
| COc1ccc(N2C(=O)N(c3c(C)cccc3Cl)Cc3cnc(Nc4ccc(N5CCN(C)CC5)cc4)nc32)c(OC)c1 [YKL-04-136-03] | 0.025 |
| COc1ccc(N2C(=O)N(c3c(C)cccc3Cl)Cc3cnc(Nc4cnn(CCN(C)C)c4)nc32)c(OC)c1 [YKL-04-136-04] | 0.015 |
| COc1cc(N2CCN(C(C)=O)CC2)ccc1N1C(=O)N(c2c(C)cccc2C)Cc2cnc(Nc3ccc(N4CCN(C)CC4)cc3)nc21 [YKL-04-136-05] | 0.042 |
| COc1ccc(N2C(=O)N(c3c(C)cccc3C)Cc3cnc(Nc4ccc(N5CCN(C)CC5)cc4)nc32)nc1 [YKL-04-136-06] | 0.009 |
| COc1cc(N2CCN(C(C)=O)CC2)ccc1N1C(=O)N(c2c(C)cccc2C)Cc2cnc(Nc3cnn(CCN(C)C)c3)nc21 [YKL-04-136-07] | 0.127 |
| COc1ccc(N2C(=O)N(c3c(C)cccc3C)Cc3cnc(Nc4cnn(CCN(C)C)c4)nc32)nc1 [YKL-04-136-08] | 0.014 |

Same assay, conditions: Table 6; cells not given, same values as Table 5 (B16 cells)

| SMILES | Highest fold Mitf induction [fold] |
| --- | --- |
| Cc1cccc(C)c1NC(=O)N1C/C=C\COc2cccc(c2)Nc2cc1ncn2 [HG-10-32-01] | 2.4 |
| CN1CCN(c2ccc(Nc3ncc4c(n3)N(C)C(=O)N(c3ccccc3)C4)cc2)CC1 [HG-11-137-01] | 4.82 |
| COc1cc(N2CCN(C)CC2)ccc1Nc1ncc2c(n1)N(C)C(=O)N(c1ccccc1)C2 [HG-11-139-02] | 5.76 |
| COc1ccc(N2C(=O)N(c3c(C)cccc3C)Cc3cnc(Nc4ccc(CN5CCN(C)CC5)cc4)nc32)nc1 [YKL-04-136-10] | 16.28 |
| COc1cc(N2CCN(C(C)=O)CC2)ccc1N1C(=O)N(c2c(C)cccc2C)Cc2cnc(Nc3ccc(CN4CCN(C)CC4)cc3)nc21 [YKL-04-136-11] | 9.58 |
